Assay results taken from patent publication US20120196751A1, “ANTHRAQUINONE CONTAINING PREPARATIONS/LIGNIN FORMULATIONS” (MARRONE BIO INNOVATIONS, INC., priority 2011, published 2012).

Test system: Phytophthora capsici
Experiment: Efficacy of WSP and WDG in controlling Phytophthora capsici leaf blight on tomato plants (Example VI)
Format: in vivo
Conditions: 1.24 g/L; tomato cv Roma; rated 7 days post inoculation
Protocol: Reynoutria sachalinensis extract was formulated as WSP and as WDG. Both formulations were evaluated for their efficacy in controlling Phytophthora leaf blight on tomato. The cv “Roma” was planted in greenhouse till two true leaf stage. The isolate of P. capsici was grown on lima bean media (150 g lima bean was autoclaved in 500 ml water at 121° C. for 0.5 h and filtered through two layers of cheese cloth to remove seed coats. 20 g of agar was added to the filtrate and increase the volume to 1000 ml. The media was autoclaved at 121° C. for 15 min) for 7 days and the sporangia were washed off with sterile water. The sporangia suspension was incubated at room temperature (about 25° C.) for 1-2 h to release zoospores. The suspension was adjusted to 1.0×10^5 spores/ml. There were three single plant replications per treatments. For each treatment, 3 ml treatment/plant was applied with hand held sprayer. After the treatments dried up in a container for incubation, 10 ml of spore suspension was applied uniformly onto all the plants. The container was sealed to maintain high moisture and the plants were incubated at 25° C. in darkness for 3 days. Disease was rated 7 days post inoculation.

With `COCC(=O)N(c1c(C)cccc1C)[C@H](C)C(=O)OC` [mefenoxam (Ridomil), mefenoxam] the “% Control” value was 95.9% and the “Severity (%, mean)” value was 2.3%.
